The test concerns CD2F1 mice, L1210 leukemia ip, survival T/C. The experiment in a line: NCI In Vivo Anticancer Drug Screen. Data for tumor model L1210 Leukemia (intraperitoneal) in CD2F1 (CDF1) mice. As to conditions: higher = longer survival. Summed up:
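Activity against a transplanted murine tumor was judged by comparing the compound group with a vehicle group. The outcome in the treated animals was divided by that in the controls.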

Setting [1] is: endpoint: mean survival time, dose: 100.0 mg/kg/injection, schedule: Q04DX003 (ip), vehicle: saline with Tween-80.
The mark [2] stands for this setting: endpoint: mean survival time, dose: 10.0 mg/kg/injection, schedule: Q04DX003 (ip), vehicle: saline with Tween-80.
Setting [3] is: endpoint: mean survival time, dose: 200.0 mg/kg/injection, schedule: Q04DX003 (ip), vehicle: saline with Tween-80.
The mark [4] stands for this setting: endpoint: mean survival time, dose: 400.0 mg/kg/injection, schedule: Q04DX003 (ip), vehicle: saline with Tween-80.
[5] abbreviates: endpoint: mean survival time, dose: 100.0 mg/kg/injection, schedule: Q01DX009 (ip), vehicle: saline with Tween-80.

Values joined by “and” are separate entries in the source; they are usually repeats but may differ in a detail not shown here. Equal entries are not always repeated. Inconclusive results and toxic doses are left out.

Take `Oc1ccc(Nc2c3ccccc3nc3c2ccc2ccccc23)cc1CN(CCCl)CCCl`: for the setting “endpoint: mean survival time, dose: 6.25 mg/kg/injection, schedule: Q01DX009 (ip), vehicle: saline”, the T/C is 91 % of control.
For the compound `NC(=O)NN=C1CCC(CC2CCCCC2)CC1` (stereo not drawn), the T/C under setting [1] is 112 % of control.
As for `CCOC(=O)Nc1cc(Nc2ccccc2)c(N)c(N)n1`, the T/C (endpoint: mean survival time, dose: 100.0 mg/kg/injection, schedule: Q01DX001 (ip), vehicle: saline) was 88 % of control and the T/C (endpoint: mean survival time, dose: 200.0 mg/kg/injection, schedule: Q01DX001 (ip), vehicle: saline) was 94 % of control.
In the case of `O=NN(CCCl)C(=O)Nc1ccc(Br)cn1`, for the setting “endpoint: mean survival time, dose: 20.0 mg/kg/injection, schedule: Q01DX001 (ip), vehicle: carboxymethylcellulose (CMC)”, the T/C is 115 % of control.
As for `Cc1ccccc1N=C(N)Nc1ccccc1C`, under setting [2], the T/C was 98 % of control.
For `Cc1cn2ccccc2c[n+]1=O`, the T/C is 103 % of control (endpoint: mean survival time, dose: 5.0 mg/kg/injection, schedule: Q04DX003 (ip), vehicle: saline with Tween-80); 108 % of control under setting [2]; 97 % of control (endpoint: mean survival time, dose: 20.0 mg/kg/injection, schedule: Q04DX003 (ip), vehicle: saline with Tween-80).
Regarding `CN(C)C(=S)S`, the T/C reads like this: (endpoint: mean survival time, dose: 50.0 mg/kg/injection, schedule: Q01DX001 (ip), vehicle: carboxymethylcellulose (CMC)) 93 % of control; (endpoint: mean survival time, dose: 100.0 mg/kg/injection, schedule: Q01DX001 (ip), vehicle: carboxymethylcellulose (CMC)) 89 % of control; under setting [1], 94 % of control; (endpoint: mean survival time, dose: 200.0 mg/kg/injection, schedule: Q01DX001 (ip), vehicle: carboxymethylcellulose (CMC)) 104 % of control; under setting [3], 105 % of control; (endpoint: mean survival time, dose: 400.0 mg/kg/injection, schedule: Q01DX001 (ip), vehicle: carboxymethylcellulose (CMC)) 106 % of control. Besides, the T/C under setting [4] is 100 % of control.
Turning to `C[N+](C)(CC(=O)Nc1ccc(Cl)c(Cl)c1)Cc1ccc(Cl)c(Cl)c1`, the T/C (endpoint: mean survival time, dose: 6.25 mg/kg/injection, schedule: Q01DX001 (ip), vehicle: saline with Tween-80) is 101 % of control; the T/C (endpoint: mean survival time, dose: 6.25 mg/kg/injection, schedule: Q01DX009 (ip), vehicle: saline sonified) is 94 % of control; the T/C (endpoint: mean survival time, dose: 12.5 mg/kg/injection, schedule: Q01DX001 (ip), vehicle: saline with Tween-80) was 103 % of control; the T/C (endpoint: mean survival time, dose: 12.5 mg/kg/injection, schedule: Q01DX009 (ip), vehicle: saline sonified) was 93 % of control; the T/C (endpoint: mean survival time, dose: 25.0 mg/kg/injection, schedule: Q01DX001 (ip), vehicle: saline with Tween-80) is 105 % of control; the T/C (endpoint: mean survival time, dose: 25.0 mg/kg/injection, schedule: Q01DX009 (ip), vehicle: saline sonified) was 86 % of control.
For `CC(C)C(C)CCC(C)C1CCC2=C3CCC4CC(O)CCC4(C)C3CCC21C` (stereo not drawn), the T/C was 89 % of control (endpoint: mean survival time, dose: 75.0 mg/kg/injection, schedule: Q01DX001 (ip), vehicle: saline with Tween-80); 92 % of control (endpoint: mean survival time, dose: 150.0 mg/kg/injection, schedule: Q01DX001 (ip), vehicle: saline with Tween-80); 100 % of control (endpoint: mean survival time, dose: 300.0 mg/kg/injection, schedule: Q01DX001 (ip), vehicle: saline with Tween-80).
Take `N[C@@H](Cc1ccc(O)c(O)c1)C(=O)O`: the T/C is 98 % of control (endpoint: mean survival time, dose: 25.0 mg/kg/injection, schedule: Q01DX009 (ip), vehicle: saline); 97 % of control (endpoint: mean survival time, dose: 50.0 mg/kg/injection, schedule: Q01DX009 (ip), vehicle: saline); 96 % of control (endpoint: mean survival time, dose: 100.0 mg/kg/injection, schedule: Q01DX009 (ip), vehicle: saline); 103 % of control (endpoint: mean survival time, dose: 100.0 mg/kg/injection, schedule: Q04DX002 (ip), vehicle: saline with Tween-80); 103 % of control (endpoint: mean survival time, dose: 200.0 mg/kg/injection, schedule: Q01DX009 (ip), vehicle: saline); 95 % of control (endpoint: mean survival time, dose: 200.0 mg/kg/injection, schedule: Q04DX002 (ip), vehicle: saline with Tween-80). The T/C by setting is: (endpoint: mean survival time, dose: 400.0 mg/kg/injection, schedule: Q01DX009 (ip), vehicle: saline) 108 % of control; (endpoint: mean survival time, dose: 400.0 mg/kg/injection, schedule: Q04DX002 (ip), vehicle: saline with Tween-80) 98 % of control; (endpoint: mean survival time, dose: 800.0 mg/kg/injection, schedule: Q01DX009 (ip), vehicle: saline) 119 % of control.
Regarding `C=CCNC(=S)NCC`, the T/C is, setting by setting: under setting [5], 98 % of control; (endpoint: mean survival time, dose: 100.0 mg/kg/injection, schedule: Q04DX003 (ip), vehicle: saline sonified) 101 % of control; (endpoint: mean survival time, dose: 200.0 mg/kg/injection, schedule: Q01DX009 (ip), vehicle: saline with Tween-80) 101 % of control; (endpoint: mean survival time, dose: 200.0 mg/kg/injection, schedule: Q04DX003 (ip), vehicle: saline sonified) 97 % of control; (endpoint: mean survival time, dose: 400.0 mg/kg/injection, schedule: Q01DX009 (ip), vehicle: saline with Tween-80) 102 % of control; (endpoint: mean survival time, dose: 400.0 mg/kg/injection, schedule: Q04DX003 (ip), vehicle: saline sonified) 101 % of control.
Take `O/N=C1\CN2CCC1CC2`: the T/C (endpoint: mean survival time, dose: 100.0 mg/kg/injection, schedule: Q01DX001 (ip), vehicle: saline with Tween-80) was 91 % of control.
`Nc1cc(Nc2ccc(Cl)cc2)c2nc(-c3ccc(Cl)cc3)c(-c3ccc(Cl)cc3)nc2n1`: the T/C under setting [1] was 100 % of control, the T/C under setting [3] was 107 % of control and the T/C under setting [4] is 107 % of control.
On to `O=C(O)C1C2CC3C(OC(=O)C31)C2Br` (stereo not drawn), for which the T/C by setting is: (endpoint: mean survival time, dose: 100.0 mg/kg/injection, schedule: Q04DX003 (ip), vehicle: saline) 105 % of control; (endpoint: mean survival time, dose: 200.0 mg/kg/injection, schedule: Q04DX003 (ip), vehicle: saline) 96 % of control; (endpoint: mean survival time, dose: 400.0 mg/kg/injection, schedule: Q04DX003 (ip), vehicle: saline) 102 % of control.
Consider `O=C(Nc1cccc(O)c1)c1ccc([N+](=O)[O-])cc1`, for which the T/C by setting is: (endpoint: mean survival time, dose: 100.0 mg/kg/injection, schedule: Q04DX003 (ip), vehicle: Klucel (hydroxypropylcellulose) (HPC)) 97 % of control; (endpoint: mean survival time, dose: 200.0 mg/kg/injection, schedule: Q04DX003 (ip), vehicle: Klucel (hydroxypropylcellulose) (HPC)) 107 % of control; (endpoint: mean survival time, dose: 400.0 mg/kg/injection, schedule: Q04DX003 (ip), vehicle: Klucel (hydroxypropylcellulose) (HPC)) 108 % of control.
As to `Nc1ccc2ccccc2c1N=Nc1ccc(C(O)C(N)CO)cc1` (stereo not drawn), the T/C reads like this: (endpoint: mean survival time, dose: 6.25 mg/kg/injection, schedule: Q04DX003 (ip), vehicle: saline with Tween-80) 100 % of control; (endpoint: mean survival time, dose: 12.5 mg/kg/injection, schedule: Q04DX003 (ip), vehicle: saline with Tween-80) 96 % of control; (endpoint: mean survival time, dose: 25.0 mg/kg/injection, schedule: Q04DX003 (ip), vehicle: saline with Tween-80) 94 % of control.
As for `CCNc1nc(NCC)nc(SC)n1`, the T/C (endpoint: mean survival time, dose: 50.0 mg/kg/injection, schedule: Q01DX009 (ip), vehicle: saline with Tween-80) is 100 % of control; the T/C under setting [5] was 89 % of control; the T/C under setting [1] was 100 % of control; the T/C under setting [3] is 97 % of control.
As for `COc1cc(C(CC(C)=O)c2cc3c(cc2OC(C)=O)OCO3)cc(OC)c1OC` (stereo not drawn) (tested in a mixture with another compound), the T/C (endpoint: median survival time, dose: 15.0 mg/kg/injection, schedule: Q01DX005 (ip), vehicle: saline with Tween-80) was 103 % of control; the T/C (endpoint: median survival time, dose: 30.0 mg/kg/injection, schedule: Q01DX005 (ip), vehicle: saline with Tween-80) was 101 % of control; the T/C (endpoint: median survival time, dose: 43.2 mg/kg/injection, schedule: Q01DX005 (ip), vehicle: saline with Tween-80) was 105 % of control; the T/C (endpoint: median survival time, dose: 60.0 mg/kg/injection, schedule: Q01DX005 (ip), vehicle: saline with Tween-80) was 114 % of control; the T/C (endpoint: median survival time, dose: 72.0 mg/kg/injection, schedule: Q01DX005 (ip), vehicle: saline with Tween-80) is 113 % of control and 110 % of control; the T/C (endpoint: median survival time, dose: 200.0 mg/kg/injection, schedule: Q01DX005 (ip), vehicle: saline with Tween-80) was 162 % of control and 168 % of control. Further, the T/C (endpoint: median survival time, dose: 240.0 mg/kg/injection, schedule: Q01DX005 (ip), vehicle: saline with Tween-80) is 103 % of control.
In the case of `O=C1c2ccccc2C(=O)c2c(NCCN3CCCCC3)ccc(NCCN3CCCCC3)c21`, the T/C (endpoint: mean survival time, dose: 8.0 mg/kg/injection, schedule: Q01DX009 (ip), vehicle: acid diluted with saline) was 100 % of control; the T/C (endpoint: mean survival time, dose: 16.0 mg/kg/injection, schedule: Q01DX009 (ip), vehicle: acid diluted with saline) was 102 % of control; the T/C (endpoint: mean survival time, dose: 32.0 mg/kg/injection, schedule: Q01DX009 (ip), vehicle: acid diluted with saline) was 110 % of control; the T/C (endpoint: mean survival time, dose: 64.0 mg/kg/injection, schedule: Q01DX009 (ip), vehicle: acid diluted with saline) is 104 % of control.

The record behind these values is PubChem BioAssay AID256 (DTP/NCI, 2004).
